Source: patent US11820827B2, “Methods of treating myelodysplastic syndrome and acute myeloid leukemia with nonfucosylated anti-CD70 antibodies” (Seagen Inc., priority 2019, dated 2023)
“And” between values parts separate entries of the source, which are not always exact repeats. Equal entries are not always repeated.

Experiments:
MV4-11 AML xenograft [1] = assay: Tumor growth in the MV4-11 AML xenograft model, SEA-CD70 and azacitidine (Example 10); format: in vivo, SCID mice
[2] = test system: MV-411 acute myeloid leukemia model; assay: Tumor growth in the MV-411 acute myeloid leukemia xenograft model (Example 7); format: in vivo, SCID mice
MV4-11 AML xenograft [3] = assay: Tumor growth in the MV4-11 AML xenograft model, SEA-CD70, azacitidine, venetoclax (Example 11); format: in vivo, SCID mice; settings: antibody 10 mg/kg Q4dx5, azacitidine 2 mg/kg Q1dx5 3 cycles, venetoclax 25 mg/kg oral Q1dx21; comparisons at day 39
Excerpt: Tumor growth was reported as a volume and calculated as an average across animals within each treatment group (FIG. 11A). Immunocompromised SCID mice were implanted with 5×10e6 MV4-11 cells subcutaneously in the flank on day 0. When mean tumor size of 50 mm^3 (measured by using the formula: Volume (mm^3)=0.5*Length*Width^2, where the length is the longer dimension) was reached, mice were randomized into treatment groups of 10 mice per group. Stock concentrations of antibody and chemotherapy were diluted to the appropriate concentration and injected into animals at 10 μl/g of body weight. Tumor length and width, and animal weight were measured two times weekly throughout the study and tumor volume was calculated using the formula above. Animals were followed until tumor volume measured ˜1000 mm^3, at which time the animals were euthanized. Animals were dosed on various schedules based on treatment received; animals receiving antibody were treated with 10 mg/kg of antibody (Q4dx5), azacitidine-treated animals were dosed daily (2 mg/kg) for five consecutive days (Q1dx5) each week, for a total of 3 cycles (3 weeks); venetoclax was given at 25 mg/kg every day by oral gavage for 21 days consecutively (Q1dx21). Animal receiving combination of treatments received each treatment at the same dose and schedule as the single treatments.

CD8 T cells in PBMCs = assay: CD8 T cell depletion in PBMCs; format: cell-based, human; settings: 24 hours
Method: (§1) At the end of the experiment cells were stained with Zombie Aqua Viability Dye and total viable Treg naïve and memory CD4 and CD8 T cell numbers were assessed. […] Fucosylated (WT Clone 13 IgG1) and nonfucosylated (SEA Clone 13 IgG1) antibodies targeting TIGIT were used as positive controls (FIG. 4E-4H).

[4] = test system: T regulatory cells (Treg) in PBMCs; assay: Treg depletion in PBMCs; format: cell-based, human; settings: 24 hours
Method: as §1

hFcγRIIIa V158 = target: T1, hFcγRIIIa V158 (Homo sapiens, UniProt P08637, F176V); assay: BLI binding kinetics to high affinity FcγRIIIa (158V) receptor variant; settings: 1:1 Langmuir global fit
T1 construct: made in house
T1 sequence (P08637 17-208 F176V): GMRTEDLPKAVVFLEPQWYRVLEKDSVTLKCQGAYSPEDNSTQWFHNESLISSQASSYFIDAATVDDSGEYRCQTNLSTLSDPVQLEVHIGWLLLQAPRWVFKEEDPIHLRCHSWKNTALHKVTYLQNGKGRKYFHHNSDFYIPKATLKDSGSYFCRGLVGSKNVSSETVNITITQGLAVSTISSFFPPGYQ

[5] = test system: NOMO-1 CD70+ target cells; assay: ADCP with monocyte-derived macrophages, NOMO-1; format: cell-based, human; settings: flow cytometry, antibody dose-dependent
Method: (§2) Phagocytosis of fluorescently labeled target cells was determined by flow cytometry. Phagocytosis was measured for the appearance of double-labeled coincident events (fluorescent target cells) and anti-CD11c positivity to identify monocyte/macrophages.
(§3) The following protocol was used to assess […] activity on AML cell lines: • 1. Target cells were labeled using the PKH26 Red Fluorescent Cell Linker Mini Kit (Sigma Aldrich) and following the manufacturer's instructions. • 2. Cells (4000 cells/well) were incubated with the indicated test articles for 30 minutes, washed and resuspended in RPMI plus 10% ultra-low IgG FBS. • 3. PBMC-derived macrophages (100,000 cells/well), generated by incubating PBMC-derived monocytes with 500 U/mL (50 ng/mL) GM-CSF for 10-12 days, were added to the target cells and incubated at 37° C. for 2 hours. • 4. Plates were centrifuged and cells resuspended in 100 μl of APC-CD11 antibody (macrophage marker) and incubated on ice for 30 minutes. • 5. Cells were washed, resuspended in PBS and analyzed by flow cytometry to determine the percentage of phagocytosis

[6] = test system: MOLM-13 CD70+ AML cell line; assay: CDC with normal human serum, MOLM-13; format: cell-based; settings: normal human serum not heat inactivated
Method: (§4) AML cell lines positive for CD70 were fluorescently labeled and treated with increasing concentrations of CD70 directed antibodies. Cells were then exposed to human compliment and lysis determined as release of fluorescent dye.
(§5) The following protocol was used to assess CDC activity on AML cell lines: • 1. Cells were incubated with […] anti-CRP monoclonal antibodies mix (anti-hCD46, anti-hCD55, anti-hCD59) for 30 minutes on ice. • 2. Cells were washed and plated (200,000 cells/well) in media containing non-heat-inactivated serum, Sytox Green (Life technology), and antibodies, which were added at the indicated final concentration, for 2 hours at 37° C. • 3. Cell dead was quantified by detecting Sitox Green fluorescent signal on an Envison plate reader (Perkin Elmer) and normalized over positive control (1% Triton X-100 treated cells).

[7] = test system: MOLM-13 CD70+ target cells; assay: ADCP with monocyte-derived macrophages, MOLM-13; format: cell-based, human; settings: flow cytometry, antibody dose-dependent
Method: as §2, §3

[8] = test system: NOMO-1 CD70+ AML cell line; assay: CDC with normal human serum, NOMO-1; format: cell-based; settings: normal human serum not heat inactivated
Method: as §4, §5

[9] = antibody 10 mg/kg Q4dx5, azacitidine 2 mg/kg Q1dx5 for 3 cycles

Molecule: Nc1ncn([C@@H]2O[C@H](CO)[C@@H](O)[C@H]2O)c(=O)n1 [azacitidine]
- effect on tumor growth (MV4-11 AML xenograft [1]; [9]): reduce tumor growth
- average time for tumors to reach a 10× fold change (MV4-11 AML xenograft [1]; antibody 10 mg/kg Q4dx5, azacitidine 2 mg/kg Q1dx5 for 3 cycles, intraperitoneally, untreated 17.82 days): 26.59 days
- delay in tumor growth (MV4-11 AML xenograft [1]; from time to 10× fold change compared to untreated control): 33%
- tumor volume, individual animals ([2]; Vidaza 5 mg/kg Q4dx4, day 9 post implant): 45.0 mm^3 and 50.0 mm^3 and 49.9 mm^3 and 57.6 mm^3 and 59.5 mm^3 and 55.2 mm^3
- tumor volume, individual animals ([2]; Vidaza 5 mg/kg Q4dx4, day 13 post implant): 47.9 mm^3 and 47.5 mm^3 and 73.3 mm^3 and 50.9 mm^3 and 84.1 mm^3 and 65.6 mm^3
- tumor volume, individual animals ([2]; Vidaza 5 mg/kg Q4dx4, day 16 post implant): 35.9 mm^3 and 42.5 mm^3 and 48.9 mm^3 and 47.2 mm^3 and 99.2 mm^3 and 70.8 mm^3
- tumor volume, individual animals ([2]; Vidaza 5 mg/kg Q4dx4, day 20 post implant): 45.2 mm^3 and 47.1 mm^3 and 86.6 mm^3 and 69.9 mm^3 and 162.6 mm^3 and 63.4 mm^3
- tumor volume, individual animals ([2]; Vidaza 5 mg/kg Q4dx4, day 24 post implant): 74.2 mm^3 and 66.4 mm^3 and 136.7 mm^3 and 125.0 mm^3 and 301.0 mm^3 and 92.0 mm^3
- tumor volume, individual animals ([2]; Vidaza 5 mg/kg Q4dx4, day 27 post implant): 141.5 mm^3 and 129.0 mm^3 and 344.5 mm^3 and 295.9 mm^3 and 465.4 mm^3 and 202.5 mm^3
- tumor volume, individual animals ([2]; Vidaza 5 mg/kg Q4dx4, day 30 post implant): 161.8 mm^3 and 130.7 mm^3 and 469.6 mm^3 and 379.5 mm^3 and 778.9 mm^3 and 279.0 mm^3
- tumor volume, individual animals ([2]; Vidaza 5 mg/kg Q4dx4, day 34 post implant): 303.9 mm^3 and 260.2 mm^3 and 649.8 mm^3 and 640.9 mm^3 and 1238.8 mm^3 and 451.9 mm^3
- tumor volume, individual animals ([2]; Vidaza 5 mg/kg Q4dx4, day 38 post implant): 568.7 mm^3 and 452.8 mm^3 and 1164.6 mm^3 and 993.8 mm^3 and 740.5 mm^3
- tumor volume, individual animals ([2]; Vidaza 5 mg/kg Q4dx4, day 41 post implant): 978.2 mm^3 and 688.1 mm^3 and 1063.7 mm^3
- delay in tumor growth ([2]; from time to 10× fold change versus untreated, h1F6SEA 10 mg/kg, azacitidine 5 mg/kg): 20.5%
- average time for tumors to reach a 10× fold change ([2]; h1F6SEA 10 mg/kg, azacitidine 5 mg/kg, Q4dx4 intraperitoneally, untreated 26.8 days): 33.68 days
- effect on tumor growth (MV4-11 AML xenograft [3]): delay tumor growth

Molecule: h1F6G1V1: antibody comprising the same CDRs as SEA-CD70, but inactivating backbone mutations (E233P, L234V, L235A) reducing Fcgamma receptor binding
- effect on tumor growth (MV4-11 AML xenograft [1]; [9]): not effective in reducing tumor growth
- tumor volume, individual animals ([2]; h1F6G1V1 20 mg/kg Q4dx4, day 9 post implant, 20 mg/kg): 48.0 mm^3 and 62.8 mm^3 and 51.3 mm^3 and 49.1 mm^3 and 52.1 mm^3 and 58.2 mm^3
- tumor volume, individual animals ([2]; h1F6G1V1 20 mg/kg Q4dx4, day 13 post implant, 20 mg/kg): 46.1 mm^3 and 64.4 mm^3 and 65.7 mm^3 and 61.5 mm^3 and 56.8 mm^3 and 65.4 mm^3
- tumor volume, individual animals ([2]; h1F6G1V1 20 mg/kg Q4dx4, day 16 post implant, 20 mg/kg): 59.3 mm^3 and 109.1 mm^3 and 97.7 mm^3 and 68.1 mm^3 and 64.7 mm^3 and 103.8 mm^3
- tumor volume, individual animals ([2]; h1F6G1V1 20 mg/kg Q4dx4, day 20 post implant, 20 mg/kg): 91.5 mm^3 and 234.8 mm^3 and 241.3 mm^3 and 80.6 mm^3 and 104.4 mm^3 and 127.2 mm^3
- tumor volume, individual animals ([2]; h1F6G1V1 20 mg/kg Q4dx4, day 24 post implant, 20 mg/kg): 188.7 mm^3 and 449.2 mm^3 and 338.1 mm^3 and 96.3 mm^3 and 198.9 mm^3 and 274.9 mm^3
- tumor volume, individual animals ([2]; h1F6G1V1 20 mg/kg Q4dx4, day 27 post implant, 20 mg/kg): 306.6 mm^3 and 606.7 mm^3 and 567.6 mm^3 and 213.6 mm^3 and 325.4 mm^3 and 433.0 mm^3
- tumor volume, individual animals ([2]; h1F6G1V1 20 mg/kg Q4dx4, day 30 post implant, 20 mg/kg): 474.6 mm^3 and 1156.6 mm^3 and 1039.1 mm^3 and 325.4 mm^3 and 470.6 mm^3 and 847.7 mm^3
- tumor volume, individual animals ([2]; h1F6G1V1 20 mg/kg Q4dx4, day 34 post implant, 20 mg/kg): 782.9 mm^3 and 709.0 mm^3 and 1001.0 mm^3 and 1081.8 mm^3
- tumor volume, individual animals ([2]; h1F6G1V1 20 mg/kg Q4dx4, day 38 post implant, 20 mg/kg): 1269.5 mm^3 and 1330.9 mm^3

B1: SGN-70: fucosylated parent anti-CD70 antibody (h1F6) of SEA-CD70 (antibody, chains of the INN, looked up, V domains shown)
VH: QVQLVQSGAEVKKPGASVKVSCKASGYTFTNYGMNWVRQAPGQGLKWMGWINTYTGEPTYADAFKGRVTMTRDTSISTAYMELSRLRSDDTAVYYCARDYGDYGMDYWGQGTTVTVSS
VL: DIVMTQSPDSLAVSLGERATINCRASKSVSTSGYSFMHWYQQKPGQPPKLLIYLASNLESGVPDRFSGSGSGTDFTLTISSLQAEDVAVYYCQHSREVPWTFGQGTKVEIK
- CD8+ cell depletion (CD8 T cells in PBMCs; V/V high affinity donor): Neither fucosylated nor nonfucosylated anti-CD70 antibodies depleted CD8+ cells
- CD8+ cell depletion (CD8 T cells in PBMCs; low affinity (F/F 158) donor): Neither fucosylated nor nonfucosylated anti-CD70 antibodies depleted CD8+ cells
- T regulatory cell depletion ([4]; donor homozygous for high affinity FcγRIIIa (V/V 158)): resulted in T regulatory cell depletion
- T regulatory cell depletion ([4]; donor homozygous for low affinity FcγRIIIa (F/F 158)): Neither CD70 targeting antibody induced T regulatory cell depletion
- Kd (hFcγRIIIa V158): 860 nM
- phagocytosis of antibody-coated target cells by macrophages [5]: readily phagocytosed target cells
- cell lysis by complement fixation [6]: lysed in an antibody-specific, dose-dependent manner
- phagocytosis of antibody-coated target cells by macrophages [7]: readily phagocytosed target cells
- cell lysis by complement fixation [8]: lysed in an antibody-specific, dose-dependent manner
